Patent publication US20130059793A1, “EGF RECEPTOR MIMICKING PEPTIDES” (BOARD OF REGENTS, THE UNIVERSITY OF TEXAS SYSTEM, priority 2010, published 2013)

Legend:
[1] = test system: cetuximab; assay: Binding of synthetic peptides to cetuximab (ELISA-based, FIG. 3A, FIG. 4B); details: FIG. 4B (peptides plated at 10 μg/ml)
Text: BSA served as an additional negative control, and the EGFR, as a positive control. […] Insertless phage served as a negative control. […] Bars represent mean±SEM.
(§1) A representative experiment is depicted. […] Bars represent mean±SEM. […] (FIG. 4C) Effect of the synthetic peptides on HN5 tumor cells. […] Viability in the absence of peptide was set to 100%. […] Bars represent mean±SEM. […] Receptors were immunoprecipitated with antibodies against phosphorylated (p) pEGFR and were immunoblotted with anti-phosphotyrosine IgG.
(§2) The EGFR served as an immobilized positive control, and BSA or control peptides (CVAAC) served as immobilized negative controls.

[2] = test system: AKT; assay: EGF-induced phosphorylation of AKT in HN5 cells; format: cell-based; details: human HN5 head and neck cells
Text: (§3) To dissect the downstream signal transduction cascade in this setting, proliferative, survival, and migratory pathways were examined.

[3] = molecular target: binding of TGFα to the EGFR (Homo sapiens, UniProt P01135); assay: Displacement of TGFα from immobilized EGFR (FIG. 6B); details: increasing molar concentrations
Sequence of binding of TGFα to the EGFR (P01135 40-89 limits assumed): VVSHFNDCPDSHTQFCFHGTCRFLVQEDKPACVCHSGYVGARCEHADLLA
Text: (§4) The EGFR was coated onto 96-well plates at decreasing concentrations. […] D(CAAVC (SEQ ID NO:8)) was used as a negative peptidomimetic control at the same concentrations (circles). […] Bars represent mean±SEM.
(§5) Decreasing molar concentrations of EGFR were immobilized in vitro, after which the native ligand (EGF or TGFα) was used to establish the baseline for the binding of EGF to the EGFR, or of TGFα to the EGFR.

[4] = test system: ERK; assay: EGF-induced phosphorylation of ERK in HN5 cells; format: cell-based; details: human HN5 head and neck cells
Text: as §3

[5] = test system: p38; assay: EGF-induced phosphorylation of p38 in HN5 cells; format: cell-based; details: human HN5 head and neck cells
Text: as §3

[6] = molecular target: binding of EGF to the EGFR (Homo sapiens, UniProt P01133); assay: Displacement of EGF from immobilized EGFR (FIG. 6A); details: D(CARVC) from 30 to 1,000 mM, cetuximab 12 nM positive control
Sequence of binding of EGF to the EGFR (P01133 971-1023 limits assumed): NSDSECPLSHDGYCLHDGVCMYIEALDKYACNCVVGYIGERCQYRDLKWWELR
Text: as §4, §5

[7] = Nuclear magnetic resonance (NMR)-spectroscopy interactions; format: binding
[8] = test system: EF43.fgf-4-derived tumors; assay: Treatment of tumor-bearing mice with peptides and peptidomimetics, tumor volume; format: in vivo; details: at the end of two weeks; Balb/c mice, EF43.fgf-4 tumors; 750 μg/mouse/dose for 5 days; mean±SEM
Text: FIGS. 5A-B: CVRAC-targeted phage homes to tumor. (FIG. 5A) Targeting tumors versus control organs. […] An anti-phage antibody was used for staining H&E staining, with the corresponding fluorescence-based immunostaining, are shown in tumors (FIG. 5A). Tumor-bearing mice received CVRAC phage, CVAAC phage, or insertless control phage as indicated. Cohorts of tumor-bearing mice (n=5 mice/group) were used. A representative experiment is shown. Scale bar, 100 μm. (FIG. 5B) Treatment of tumor-bearing mice with peptides and peptidomimetics. Balb/c mice bearing EF43.fgf-4-derived tumors were divided into size-matched cohorts (n=7 mice/group); individual tumor volumes are represented before (black circles) and after (white circles). Peptides and peptidomimetics were administered at 750 μg/mouse/dose for 5 days. Shown are mean tumor volumes±SEM.
Selective phage homing to tumors was evaluated as described (Hajitou et al., 2006; Arap et al., 1998). […] Each cohort of mice (n=3 per experiment) with size-matched tumors received a set of test and control phage clones. After 6 h, tumor-bearing mice were perfused through the heart with 20 ml of PBS containing 4% paraformaldehyde (PFA). […] For experimental therapy, Balb/c mice bearing EF43.fgf-4-derived tumors were established, and tumor volumes were determined as described (Arap et al., 1998; Hajitou et al., 2006; Ciardiello et al., 1999). […]

[9] = test system: EGFR; assay: EGF-induced EGFR autophosphorylation (immunoprecipitation, anti-phosphotyrosine blot); format: cell-based, human; details: HN5 tumor cells, EGF 15 min, FIG. 4E
Text: as §1

[10] = test system: polyclonal anti-CVRAC antibodies; assay: ELISA recognition of peptides by polyclonal anti-CVRAC antibodies (FIG. 4B); format: binding, rabbit
Text: as §1
Rabbits were immunized with KLH-conjugated CVRAC and a purified antibody was obtained. […] The capacity of rabbit IgG against CVRAC to recognize CVRAC, D(CARVC), and EGFR was measured by ELISA.
as §2

[11] = test system: HN5 tumor cells; assay: Cell viability/proliferation, MTT assay, HN5; format: cell-based, human; set-up: cell proliferation / viability: dose or concentration left out as unconfirmed
Protocol: as §1
Tumor cell lines HN5, UMSCC 10A, GEO and EF43.fgf-4 were culture in standard conditions. Viability was assessed by MTT assays (Sigma) as described (Cardó-Vila et al., 2003). […] Samples were read at 570 nm.
Tumor cell lines HN5, UMSCC 10A, GEO and EF43.fgf-4 were maintained in high-glucose DMEM, supplemented with 10% heat-inactivated fetal bovine serum, 20 mM HEPES (pH 7.4), 100 IU/ml penicillin, 100 μg/ml streptomycin, and 4 mM glutamine at 5% CO2 at 37° C. EF43.fgf-4 were grown in G418 as described (Hajitou et al., 2006).

## D(CARVC)
[1]
  binding of synthetic peptide to cetuximab: retained binding activity
[2]
  EGF-induced phosphorylation of AKT: inhibit
[3]
  displacement of TGFα from the EGFR: concentration-dependent displacement
[4]
  EGF-induced phosphorylation of ERK: inhibit
[5]
  EGF-induced phosphorylation of p38: not
[6]
  displacement of EGF from the EGFR: concentration-dependent effect
[7]
  interactions by NMR-spectroscopy: Low-affinity interactions (micromolar range)
[8]
  tumor volume: 550±50 mm^3
[9]
  EGF-induced tyrosine phosphorylation of the EGFR: effectively inhibited
[10]
  recognition by polyclonal anti-CVRAC antibodies: recognized
[11]; HN5, MTT, 120 h, increasing concentrations, FIG. 4C
  cell proliferation / viability: proliferated much less
[11]; prolonged (120 h) functional assay
  activity on an equimolar basis compared with CVRAC: more potent
